Results reported in article PMC12040169 (PLOS Biology, 2025).
Converted amounts (≈) assume the structure as drawn.

Tests used:
[1] = system: T1, CTL2-GFP (C. trachomatis L2/434/Bu, GFP-expressing); assay: microbe, parasite or virus in culture; design: species or system HeLa; C. trachomatis growth in HeLa, dose-response, mean of bulk GFP fluorescence and imaged total inclusion area; conditions: Chlamydia trachomatis, 28.5 h; mean of GFP and inclusion area
T1 construct: L2/434/Bu, GFP-expressing
Source text: We screened a library of 36,785 small molecules displaying drug-like properties and covering a wide chemical space (Fig 1A and S2A Data). In this process, we also complemented the assay described above with an imaging-based readout (Fig 1B). After measurements of bulk GFP and resorufin fluorescence, cells were fixed, stained with the DNA dye Hoechst, and imaged at a high-content imaging platform to detect chlamydial inclusions (GFP) and host cell nuclei (Hoechst). The total area and number of inclusions in individual wells and the number of nuclei then served as additional proxies for chlamydial growth and host cell viability. […] MICs were calculated as described above.

in vitro = assay: in vitro; design: Viability of infected HeLa host cells, resazurin conversion, bulk resorufin fluorescence relative to DMSO; conditions: human, hela cells; bulk resorufin, mean of 3
[2] = system: T1, CTL2-GFP (C. trachomatis L2/434/Bu, GFP-expressing); assay: microbe, parasite or virus in culture; design: C. trachomatis growth in HeLa, dose-response, mean of bulk GFP fluorescence and imaged total inclusion area; conditions: Chlamydia trachomatis, HeLa, 28.5 h; mean of GFP and inclusion area
Outline: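 First, bulk GFP and resorufin signals were measured in compound-treated infected cultures. Cells were next fixed and stained with Hoechst. Finally, high-content imaging quantified chlamydial inclusions (area, number) and host nuclei, and MICs were calculated.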

Row | SMILES | MIC [1] | viability at 28.5 h, 0.000416667 µM (in vitro) | viability at 28.5 h, 0.00125 µM (in vitro) | viability at 28.5 h, 0.00375 µM (in vitro) | viability at 28.5 h, 0.0123333 µM (in vitro) | viability at 28.5 h, 0.037 µM (in vitro) | viability at 28.5 h, 0.111 µM (in vitro) | viability at 28.5 h, 0.333 µM (in vitro) | viability at 28.5 h, 1 µM (in vitro) | viability at 28.5 h, 3 µM (in vitro) | viability at 28.5 h, 10 µM (in vitro) | viability at 28.5 h, 30 µM (in vitro) | IC50 [2]
1 | COc1ccc([C@@H]2CN(C)C[C@H]2NC(=O)Nc2ccc(Cl)c(Cl)c2)cc1OC [c39e] | 5.39 µM (≈ 2.29 µg/mL) | 93.1% | 88.4% | 92.6% | 90.6% | 94.9% | 83.9% | 87.9% | 84.4% | 86.1% | 84.6% | 81.3% | 4.96 µM
2 | CC(=O)Nc1ccc(-c2cccc(COC3CCN(C(=O)c4ccc(OC(C)C)cc4)CC3)c2)cc1 [c36e] | 8.26 µM (≈ 4.02 µg/mL) | 89.8% | 85.4% | 90.5% | 89% | 91.7% | 89.4% | 94.8% | 92% | 95.1% | 97.8% | 116% | 4.11 µM
3 | COc1ccc2cc3c(nc2c1)OC(=O)N(CC1CC1)C3 [c32e] | 4.53 µM (≈ 1.29 µg/mL) | 102% | 94.1% | 91.5% | 92% | 89.7% | 84.5% | 88.5% | 84.9% | 86.8% | 85.1% | 85.4% | 3.16 µM
4 | OCCNc1nc(Nc2ccc(Br)cc2)nc2ccccc12 [c17e] | 3.14 µM (≈ 1.13 µg/mL) | 95.2% | 87.1% | 86.4% | 86.4% | 88.2% | 83.5% | 88.9% | 86% | 84.9% | 81.2% | 71.2% | 1.24 µM
5 | COc1ccc(C2CC(=O)C=C(Nc3cc(Cl)ccc3O)C2)cc1 (centres unmarked) [c24e] | 5.71 µM (≈ 1.96 µg/mL) | 94% | 92.4% | 94.1% | 84.9% | 89.8% | 84.5% | 88.6% | 85.7% | 87.6% | 83.7% | 88.4% | 2.46 µM
6 | O=[N+]([O-])c1ccc2[nH]c3c(c2c1)CCCC3NC1CCN(CCc2ccccc2)CC1 (centres unmarked) [c23e] | 4 µM (≈ 1.68 µg/mL) | 96.2% | 90.3% | 91.9% | 88% | 86.6% | 87.4% | 90.5% | 83.9% | 93.2% | 76% | 6.18% | 2.18 µM
7 | O=C1C(NCCO)=C(Nc2cccc(Cl)c2)C(=O)c2ccccc21 [c45e] | 19.4 µM (≈ 6.66 µg/mL) | 89.2% | 87.4% | 91% | 91.6% | 91.8% | 88.5% | 92.8% | 89.8% | 93.6% | 97.9% | 102% | 6.16 µM
8 | Oc1ccccc1Nc1nc(NC2CCCC2)c2ccccc2n1 [c49e] | 10.8 µM (≈ 3.45 µg/mL) | 84.4% | 94.9% | 87.6% | 90% | 86% | 91.7% | 87.8% | 90.1% | 84.7% | 90.6% | 77.3% | 7.48 µM
